The values below are quoted from earlier work in patent publication US10446758B2, “Hole transporting material, OLED display panel and electronic device comprising the same” (SHANGHAI TIANMA AM-OLED CO., LTD., priority 2016, dated 2019).

For the data set the following is noted: prior art material, background statement.

As for `CC1(C)c2ccccc2-c2ccc(N(c3ccc4c(c3)C3(c5ccccc5-c5ccccc53)c3ccccc3-4)c3ccccc3-c3ccccc3)cc21`, the “solubility (in words)” value is reported as “good”.
